ChEMBL document CHEMBL4431319, “Design and synthesis of 4'-O-alkylamino-tethered-benzylideneindolin-2-ones as potent cytotoxic and apoptosis inducing agents” (Bioorg Med Chem Lett, 2016)
Activity calls are given as the source filed them. The calls are words filed in the database; no cut-off is given here.

How the values were obtained:
A549 = assay: Cytotoxicity against human A549 cells after 48 hrs by MTT assay; type: functional, cell-based; conditions: A549, 48 h
DU-145 = assay: Cytotoxicity against human DU145 cells after 48 hrs by MTT assay; type: functional, cell-based; conditions: DU-145, 48 h
BT-549 = assay: Cytotoxicity against human BT549 cells after 48 hrs by MTT assay; type: functional, cell-based; conditions: BT-549, 48 h
MDA-MB-231 [1] = assay: Cytotoxicity against human MDA-MB-231 cells after 48 hrs by MTT assay; type: functional, cell-based; conditions: MDA-MB-231, 48 h
MCF-10A = assay: Cytotoxicity against human MCF10A cells after 48 hrs by MTT assay; type: cell-based
MDA-MB-231 [2] = assay: Induction of nuclear shrinkage in human MDA-MB-231 cells at IC50 after 24 to 48 hrs by phase contrast microscopic analysis; type: functional, cell-based
MDA-MB-231 [3] = assay: Induction of detachment of human MDA-MB-231 cells at compound IC50 after 24 to 48 hrs by phase contrast microscopic analysis; type: functional, cell-based
MDA-MB-231 [4] = assay: Antimigratory activity in human MDA-MB-231 cells at compound IC50 after 24 to 48 hrs by wound healing assay relative to control; type: functional, cell-based
MDA-MB-231 [5] = assay: Disruption of F-actin-mediated stress fiber formation around nucleus in human MDA-MB-231 cells at compound IC50 after 12 hrs by rhodamine-phalloidin/[…] staining-based confocal microscopic analysis; type: functional, cell-based
MDA-MB-231 [6] = assay: Induction of apoptosis in human MDA-MB-231 cells assessed as fragmented nuclei at compound IC50 after 24 hrs by […] staining-based fluorescence microscopic analysis; type: functional, cell-based
MDA-MB-231 [7] = assay: Induction of apoptosis in human MDA-MB-231 cells assessed as chromatin condensation at compound IC50 after 24 hrs by […] staining-based fluorescence microscopic analysis; type: functional, cell-based
MDA-MB-231 [8] = assay: Induction of apoptosis in human MDA-MB-231 cells assessed as appearance of horseshoe shaped nuclei at compound IC50 after 24 hrs by […] staining-based fluorescence microscopic analysis; type: functional, cell-based
MDA-MB-231 [9] = assay: Disruption of mitochondrial membrane potential in human MDA-MB-231 cells at compound IC50 after 24 hrs by rhodamine 123 staining-based spectrofluorometric analysis; type: functional
MDA-MB-231 [10] = assay: Induction of ROS generation in human MDA-MB-231 cells at compound IC50 after 24 hrs by DCFDA staining-based spectrofluorometric analysis relative to control; type: functional, cell-based
MDA-MB-231 [11] = assay: Induction of apoptosis in human MDA-MB-231 cells assessed as pyknosis at compound IC50 after 24 hrs by […] staining-based fluorescence microscopic analysis; type: functional, cell-based
MDA-MB-231 [12] = assay: Induction of cell cycle arrest in human MDA-MB-231 cells assessed as accumulation at G0/G1 phase at 2.5 uM after 24 hrs by propidium iodide staining based flow cytometry (reference value: 55.02%); type: functional
MDA-MB-231 [13] = assay: Induction of cell cycle arrest in human MDA-MB-231 cells assessed as accumulation at […] at 2.5 uM after 24 hrs by propidium iodide staining based flow cytometry (reference value: 26.12%); type: functional
MDA-MB-231 [14] = assay: Induction of cell cycle arrest in human MDA-MB-231 cells assessed as accumulation at G2/M phase at 2.5 uM after 24 hrs by propidium iodide staining based flow cytometry (reference value: 18.86%); type: functional
MDA-MB-231 [15] = assay: Induction of cell cycle arrest in human MDA-MB-231 cells assessed as accumulation at G0/G1 phase at 5 uM after 24 hrs by propidium iodide staining based flow cytometry (reference value: 55.02%); type: functional
MDA-MB-231 [16] = assay: Induction of cell cycle arrest in human MDA-MB-231 cells assessed as accumulation at […] at 5 uM after 24 hrs by propidium iodide staining based flow cytometry (reference value: 26.12%); type: functional
MDA-MB-231 [17] = assay: Induction of cell cycle arrest in human MDA-MB-231 cells assessed as accumulation at G2/M phase at 5 uM after 24 hrs by propidium iodide staining based flow cytometry (reference value: 18.86%); type: functional
MDA-MB-231 [18] = assay: Induction of cell cycle arrest in human MDA-MB-231 cells assessed as accumulation at G0/G1 phase at 10 uM after 24 hrs by propidium iodide staining based flow cytometry (reference value: 55.02%); type: functional
MDA-MB-231 [19] = assay: Induction of cell cycle arrest in human MDA-MB-231 cells assessed as accumulation at […] at 10 uM after 24 hrs by propidium iodide staining based flow cytometry (reference value: 26.12%); type: functional
MDA-MB-231 [20] = assay: Induction of cell cycle arrest in human MDA-MB-231 cells assessed as accumulation at G2/M phase at 10 uM after 24 hrs by propidium iodide staining based flow cytometry (reference value: 18.86%); type: functional

Compound: COc1cc(/C=C2\C(=O)Nc3ccc(Br)cc32)ccc1OCCN1CCOCC1
- IC50 (A549): > 20 µM
- IC50 (DU-145): > 20 µM
- IC50 (BT-549): > 20 µM
- IC50 (MDA-MB-231 [1]): > 20 µM

Compound: COc1cc(/C=C2\C(=O)Nc3ccc(Cl)cc32)ccc1OCCCN1CC(C)OC(C)C1 (configuration not stated)
- IC50 (A549): 6.25 µM
- IC50 (DU-145): 2.71 µM
- IC50 (BT-549): 2.77 µM
- IC50 (MDA-MB-231 [1]): 1.99 µM
- IC50 (MCF-10A): 54.6 µM
- Activity (MDA-MB-231 [2]): Active
- Activity (MDA-MB-231 [3]): Active
- Activity (MDA-MB-231 [4]): Active
- Activity (MDA-MB-231 [5]): Active
- Activity (MDA-MB-231 [6]): Active
- Activity (MDA-MB-231 [7]): Active
- Activity (MDA-MB-231 [8]): Active
- Activity (MDA-MB-231 [9]): 28%
- Activity (MDA-MB-231 [10]): Active
- Activity (MDA-MB-231 [11]): Active

Compound: COc1cc(/C=C2\C(=O)Nc3ccccc32)ccc1OCCN1CCOCC1
- IC50 (A549): > 20 µM
- IC50 (DU-145): > 20 µM
- IC50 (BT-549): > 20 µM
- IC50 (MDA-MB-231 [1]): > 20 µM

Compound: COc1cc(/C=C2\C(=O)Nc3ccc(C)cc32)ccc1OCCN1CCOCC1
- IC50 (A549): > 20 µM
- IC50 (DU-145): > 20 µM
- IC50 (BT-549): > 20 µM
- IC50 (MDA-MB-231 [1]): 9.5 µM
- IC50 (MCF-10A): > 100 µM

Compound: COc1cc(/C=C2\C(=O)Nc3ccc(F)cc32)ccc1OCCN1CCOCC1
- IC50 (A549): > 20 µM
- IC50 (DU-145): > 20 µM
- IC50 (BT-549): > 20 µM
- IC50 (MDA-MB-231 [1]): > 20 µM

Compound: COc1cc(/C=C2\C(=O)Nc3ccc(C)cc32)ccc1OCCCN1CC(C)OC(C)C1 (configuration not stated)
- IC50 (A549): > 20 µM
- IC50 (DU-145): > 20 µM
- IC50 (BT-549): > 20 µM
- IC50 (MDA-MB-231 [1]): 11.5 µM

Compound: COc1cc(/C=C2\C(=O)Nc3ccccc32)ccc1OCCCN1CCN(c2ncccc2C(F)(F)F)CC1
- IC50 (A549): > 20 µM
- IC50 (DU-145): > 20 µM
- IC50 (BT-549): > 20 µM
- IC50 (MDA-MB-231 [1]): > 20 µM

Compound: COc1cc(/C=C2\C(=O)Nc3ccc(Cl)cc32)ccc1OCCN1CCOCC1
- IC50 (A549): 14.7 µM
- IC50 (DU-145): 4.43 µM
- IC50 (BT-549): 3.52 µM
- IC50 (MDA-MB-231 [1]): 3.31 µM
- IC50 (MCF-10A): 61.3 µM

Compound: COc1cc(/C=C2\C(=O)Nc3ccccc32)ccc1OCCCN1CCc2ccccc21
- IC50 (A549): > 20 µM
- IC50 (DU-145): > 20 µM
- IC50 (BT-549): > 20 µM
- IC50 (MDA-MB-231 [1]): > 20 µM

Compound: COc1cc(/C=C2\C(=O)Nc3ccc(C)cc32)ccc1OCCCN1CCN(c2ncccc2C(F)(F)F)CC1
- IC50 (A549): > 20 µM
- IC50 (DU-145): > 20 µM
- IC50 (BT-549): > 20 µM
- IC50 (MDA-MB-231 [1]): > 20 µM

Compound: COc1cc(/C=C2\C(=O)Nc3ccc(Cl)cc32)ccc1OCCCN1CCN(c2ncccc2C(F)(F)F)CC1
- IC50 (A549): 9.53 µM
- IC50 (DU-145): 1.61 µM
- IC50 (BT-549): 1.53 µM
- IC50 (MDA-MB-231 [1]): 1.26 µM
- IC50 (MCF-10A): 41.3 µM
- Activity (MDA-MB-231 [2]): Active
- Activity (MDA-MB-231 [3]): Active
- Activity (MDA-MB-231 [4]): Active
- Activity (MDA-MB-231 [12]): 68.53%
- Activity (MDA-MB-231 [5]): Active
- Activity (MDA-MB-231 [13]): 17.93%
- Activity (MDA-MB-231 [14]): 13.45%
- Activity (MDA-MB-231 [15]): 77.62%
- Activity (MDA-MB-231 [16]): 11.74%
- Activity (MDA-MB-231 [17]): 10.54%
- Activity (MDA-MB-231 [18]): 84.74%
- Activity (MDA-MB-231 [19]): 5.81%
- Activity (MDA-MB-231 [20]): 9.42%
- Activity (MDA-MB-231 [6]): Active
- Activity (MDA-MB-231 [7]): Active
- Activity (MDA-MB-231 [8]): Active
- Activity (MDA-MB-231 [9]): 40%
- Activity (MDA-MB-231 [10]): Active
- Activity (MDA-MB-231 [11]): Active

Compound: COc1cc(/C=C2\C(=O)Nc3ccc(Cl)cc32)ccc1OCCCN1CCN(c2ccccn2)CC1
- IC50 (A549): > 20 µM
- IC50 (DU-145): > 20 µM
- IC50 (BT-549): > 20 µM
- IC50 (MDA-MB-231 [1]): 14.8 µM
- IC50 (MCF-10A): 51.3 µM

Compound: COc1cc(/C=C2\C(=O)Nc3ccccc32)ccc1OCCCN1CCOCC1
- IC50 (A549): > 20 µM
- IC50 (DU-145): > 20 µM
- IC50 (BT-549): > 20 µM
- IC50 (MDA-MB-231 [1]): > 20 µM

Compound: COc1cc(/C=C2\C(=O)Nc3ccc(C)cc32)ccc1OCCCN1CCOCC1
- IC50 (A549): > 20 µM
- IC50 (DU-145): > 20 µM
- IC50 (BT-549): > 20 µM
- IC50 (MDA-MB-231 [1]): > 20 µM

Compound: COc1cc(/C=C2\C(=O)Nc3ccccc32)ccc1OCCCN1CCN(c2ccccn2)CC1
- IC50 (A549): > 20 µM
- IC50 (DU-145): > 20 µM
- IC50 (BT-549): > 20 µM
- IC50 (MDA-MB-231 [1]): > 20 µM

Compound: COc1cc(/C=C2\C(=O)Nc3ccccc32)ccc1OCCCN1CC(C)OC(C)C1 (configuration not stated)
- IC50 (A549): > 20 µM
- IC50 (DU-145): > 20 µM
- IC50 (BT-549): > 20 µM
- IC50 (MDA-MB-231 [1]): 15.2 µM

Compound: COc1cc(/C=C2\C(=O)Nc3ccccc32)ccc1OCCCN1CCN(C)CC1
- IC50 (A549): 3.35 µM
- IC50 (DU-145): 2.23 µM
- IC50 (BT-549): 2.53 µM
- IC50 (MDA-MB-231 [1]): 2.07 µM
- IC50 (MCF-10A): > 100 µM

Compound: COc1cc(/C=C2\C(=O)Nc3ccc(Cl)cc32)ccc1OCCCN1CCOCC1
- IC50 (A549): 5.5 µM
- IC50 (DU-145): 2.91 µM
- IC50 (BT-549): 2.79 µM
- IC50 (MDA-MB-231 [1]): 2.51 µM
- IC50 (MCF-10A): > 100 µM

Compound: COc1cc(/C=C2\C(=O)Nc3ccc(Cl)cc32)ccc1OCCCN1CCN(C)CC1
- IC50 (A549): 11.3 µM
- IC50 (DU-145): 2.15 µM
- IC50 (BT-549): 2.17 µM
- IC50 (MDA-MB-231 [1]): 1.75 µM
- IC50 (MCF-10A): 43.6 µM
- Activity (MDA-MB-231 [2]): Active
- Activity (MDA-MB-231 [3]): Active
- Activity (MDA-MB-231 [4]): Active
- Activity (MDA-MB-231 [5]): Active
- Activity (MDA-MB-231 [6]): Active
- Activity (MDA-MB-231 [7]): Active
- Activity (MDA-MB-231 [8]): Active
- Activity (MDA-MB-231 [9]): 32%
- Activity (MDA-MB-231 [10]): Active
- Activity (MDA-MB-231 [11]): Active

Compound: COc1cc(/C=C2\C(=O)Nc3ccccc32)ccc1OCCCn1nc(C)cc1C
- IC50 (A549): > 20 µM
- IC50 (DU-145): > 20 µM
- IC50 (BT-549): > 20 µM
- IC50 (MDA-MB-231 [1]): > 20 µM
